Assay results published in ChEMBL document CHEMBL3758145, “Synthesis of 3-acyloxyxanthone derivatives as α-glucosidase inhibitors: A further insight into the 3-substituents' effect” (Bioorg Med Chem, 2016).

Assays:
Set-up in all cases: species or system Saccharomyces cerevisiae
[1] = Inhibition of yeast alpha-glucosidase using PNP glycoside as substrate preincubated for 30 mins followed by substrate addition measured for 60 secs by spectrophotometric analysis
[2] = Non-competitive inhibition of yeast alpha-glucosidase using PNP glycoside as substrate assessed as enzyme-inhibitor complex preincubated for 30 mins followed by substrate addition measured for 60 secs by Lineweaver-Burk plot analysis
[3] = Non-competitive inhibition of yeast alpha-glucosidase using PNP glycoside as substrate assessed as enzyme-substrate-inhibitor complex preincubated for 30 mins followed by substrate addition measured for 60 secs by Lineweaver-Burk plot analysis

## O=C(Oc1cc(O)c2c(=O)c3ccccc3oc2c1)c1cccc2ccccc12
[1]
  IC50: 21.6 µM

## O=c1c2ccccc2oc2cc(O)cc(O)c12
[1]
  IC50: 145 µM

## CC(C)(C)[Si](C)(C)Oc1ccc(C(=O)Oc2cc(O)c3c(=O)c4ccccc4oc3c2)cc1
[2]
  Ki: 13.3 µM
[3]
  Ki: 12.1 µM
[1]
  IC50: 10.6 µM

## O=C(Oc1cc(O)c2c(=O)c3ccccc3oc2c1)c1ccccc1Cl
[1]
  IC50: 21.8 µM

## COc1ccc(C(=O)Oc2cc(O)c3c(=O)c4ccccc4oc3c2)cc1
[1]
  IC50: 23.2 µM

## CNc1ccc(C(=O)Oc2cc(O)c3c(=O)c4ccccc4oc3c2)cc1
[1]
  IC50: 19.8 µM

## O=C(Oc1cc(O)c2c(=O)c3ccccc3oc2c1)c1ccccn1
[1]
  IC50: 42 µM

## O=C(/C=C/c1ccccc1)Oc1cc(O)c2c(=O)c3ccccc3oc2c1
[1]
  IC50: 46.7 µM

## O=C(Oc1cc(O)c2c(=O)c3ccccc3oc2c1)c1cccc(Br)c1
[2]
  Ki: 18 µM
[3]
  Ki: 17.4 µM
[1]
  IC50: 11.6 µM

## Cc1ccc(C(=O)Oc2cc(O)c3c(=O)c4ccccc4oc3c2)cc1
[1]
  IC50: 106 µM

## O=C(Oc1cc(O)c2c(=O)c3ccccc3oc2c1)c1ccc(O)cc1
[2]
  Ki: 17.8 µM
[3]
  Ki: 15.5 µM
[1]
  IC50: 13.3 µM

## OC[C@H]1NC[C@H](O)[C@@H](O)[C@@H]1O [DUVOGLUSTAT]
[1]
  IC50: 40 µM

## O=C(Oc1cc(O)c2c(=O)c3ccccc3oc2c1)c1ccccc1F
[1]
  IC50: 31.6 µM

## O=C(Oc1cc(O)c2c(=O)c3ccccc3oc2c1)c1ccncc1
[1]
  IC50: 23.7 µM

## COc1cc(C(=O)Oc2cc(O)c3c(=O)c4ccccc4oc3c2)cc(OC)c1OC
[1]
  IC50: 58.2 µM

## O=C(Oc1cc(O)c2c(=O)c3ccccc3oc2c1)c1ccccc1
[1]
  IC50: 36.1 µM

## O=C(Oc1cc(O)c2c(=O)c3ccccc3oc2c1)c1cccnc1
[1]
  IC50: 42.6 µM

## O=C(Oc1cc(O)c2c(=O)c3ccccc3oc2c1)c1ccc2ccccc2c1
[1]
  IC50: 30.6 µM
